This data set relates to CCRIS mutagenicity, Ames/micronucleus/aberration tests. The data set can be described thus: CCRIS mutagenicity studies.
[1] abbreviates: Test System: AMES SALMONELLA TYPHIMURIUM, Strain/Indicator: TA98, Metabolic Activation: NONE, Method: PREINCUBATION
[2] abbreviates: Test System: AMES SALMONELLA TYPHIMURIUM, Strain/Indicator: TA100, Metabolic Activation: NONE, Method: PREINCUBATION
The mark [3] stands for this setting: Test System: AMES SALMONELLA TYPHIMURIUM, Strain/Indicator: TA98, Metabolic Activation: NONE, Method: STANDARD PLATE.
The mark [4] stands for this setting: Test System: AMES SALMONELLA TYPHIMURIUM, Strain/Indicator: TA98, Metabolic Activation: RAT, LIVER, S-9, AROCLOR 1254, Method: STANDARD PLATE.
Setting [5] is: Test System: AMES SALMONELLA TYPHIMURIUM, Strain/Indicator: TA100, Metabolic Activation: NONE, Method: STANDARD PLATE.
The mark [6] stands for this setting: Test System: AMES SALMONELLA TYPHIMURIUM, Strain/Indicator: TA100, Metabolic Activation: RAT, LIVER, S-9, AROCLOR 1254, Method: STANDARD PLATE.

Consider five compounds from PubChem BioAssay AID1259407 (Chemical Carcinogenesis Research Information System (CCRIS), 2018).

Active and inactive are the calls of the source. No rule for the calls is given here.

On to `CCN(Cc1cccc(S(=O)(=O)O)c1)c1ccc(C(=C2C=CC(=[N+](CC)Cc3cccc(S(=O)(=O)O)c3)C=C2)c2ccccc2S(=O)(=O)[O-])cc1`, for which the mutagenic call (End Point: IN VIVO MICRONUCLEUS, Test System: BONE MARROW POLYCHROMATIC ERYTHROCYTES, Species: MOUSE, Strain/Sex: DDY/MALE, Route: IP) is “inactive; negative”; the mutagenic call (Test System: AMES SALMONELLA TYPHIMURIUM, Strain/Indicator: TA98, Metabolic Activation: HAMSTER, LIVER, S-9, AROCLOR 1254, Method: STANDARD PLATE) is “active; positive”; the mutagenic call (Test System: AMES SALMONELLA TYPHIMURIUM, Strain/Indicator: TA98, Metabolic Activation: HAMSTER, LIVER, S-9, Method: PREINCUBATION (PRIVAL METHOD)) is “active; positive”; the mutagenic call under setting [1] was “inactive; negative”; the mutagenic call (Test System: AMES SALMONELLA TYPHIMURIUM, Strain/Indicator: TA98, Metabolic Activation: S-9, Method: PREINCUBATION) was “inactive; negative”; the mutagenic call (Test System: AMES SALMONELLA TYPHIMURIUM, Strain/Indicator: TA100, Metabolic Activation: HAMSTER, LIVER, S-9, Method: PREINCUBATION (PRIVAL METHOD)) is “active; positive”. The mutagenic call by setting is: under setting [2], “inactive; negative”; (Test System: AMES SALMONELLA TYPHIMURIUM, Strain/Indicator: TA100, Metabolic Activation: S-9, Method: PREINCUBATION) “inactive; negative”; (Test System: AMES SALMONELLA TYPHIMURIUM, Strain/Indicator: TA1538, Metabolic Activation: RAT, LIVER, S-9, AROCLOR 1254, HAMSTER, LIVER, S-9, AROCLOR 1254, Method: STANDARD PLATE) “active; positive”; (Test System: MOUSE LYMPHOMA, Strain/Indicator: L5178Y (TK+/TK-), Metabolic Activation: RAT, LIVER, S-9, AROCLOR 1254, Method: SUSPENSION/PLATE) “active; positive. reevaluation of results: positive”; (Test System: Mouse lymphoma, Strain/Indicator: L5178Y (tk+/tk-), Metabolic Activation: None, Method: Suspension/plate) “inactive; negative”.
On to `CCCCCc1cc(O)c2c(c1)OC(C)(C)[C@@H]1CCC(C)=C[C@@H]21`, for which the mutagenic call is “inactive; negative” (Test System: AMES SALMONELLA TYPHIMURIUM, Strain/Indicator: TA97, Metabolic Activation: HAMSTER, LIVER, S-9, AROCLOR 1254 (10 OR 30%), Method: PREINCUBATION); “inactive; negative” (Test System: AMES SALMONELLA TYPHIMURIUM, Strain/Indicator: TA97, Metabolic Activation: NONE, Method: PREINCUBATION); “inactive; negative” (Test System: AMES SALMONELLA TYPHIMURIUM, Strain/Indicator: TA97, Metabolic Activation: RAT, LIVER, S-9, AROCLOR 1254 (10 OR 30%), Method: PREINCUBATION); “inactive; negative” (Test System: AMES SALMONELLA TYPHIMURIUM, Strain/Indicator: TA98, Metabolic Activation: HAMSTER, LIVER, S-9, AROCLOR 1254 (10 OR 30%), Method: PREINCUBATION); “inactive; negative” under setting [1]; “inactive; negative” (Test System: AMES SALMONELLA TYPHIMURIUM, Strain/Indicator: TA98, Metabolic Activation: RAT, LIVER, S-9, AROCLOR 1254 (10 OR 30%), Method: PREINCUBATION). Further, the mutagenic call is “inactive; negative” (Test System: AMES SALMONELLA TYPHIMURIUM, Strain/Indicator: TA100, Metabolic Activation: HAMSTER, LIVER, S-9, AROCLOR 1254 (10 OR 30%), Method: PREINCUBATION); “inactive; negative” under setting [2]; “inactive; negative” (Test System: AMES SALMONELLA TYPHIMURIUM, Strain/Indicator: TA100, Metabolic Activation: RAT, LIVER, S-9, AROCLOR 1254 (10 OR 30%), Method: PREINCUBATION); “inactive; negative” (Test System: AMES SALMONELLA TYPHIMURIUM, Strain/Indicator: TA1535, Metabolic Activation: HAMSTER, LIVER, S-9, AROCLOR 1254 (10 OR 30%), Method: PREINCUBATION); “inactive; negative” (Test System: AMES SALMONELLA TYPHIMURIUM, Strain/Indicator: TA1535, Metabolic Activation: NONE, Method: PREINCUBATION); “inactive; negative” (Test System: AMES SALMONELLA TYPHIMURIUM, Strain/Indicator: TA1535, Metabolic Activation: RAT, LIVER, S-9, AROCLOR 1254 (10 OR 30%), Method: PREINCUBATION).
For `CCCCCCCCCCCCOC(=O)CCSCCC(=O)OCCCCCCCCCCCC`, the mutagenic call is “inactive; negative” under setting [3]; “inactive; negative” under setting [4]; “inactive; negative” under setting [5]; “inactive; negative” under setting [6]; “inactive; negative” (Test System: AMES SALMONELLA TYPHIMURIUM, Strain/Indicator: TA1535, Metabolic Activation: NONE, Method: STANDARD PLATE); “inactive; negative” (Test System: AMES SALMONELLA TYPHIMURIUM, Strain/Indicator: TA1535, Metabolic Activation: RAT, LIVER, S-9, AROCLOR 1254, Method: STANDARD PLATE). In addition, the mutagenic call (Test System: AMES SALMONELLA TYPHIMURIUM, Strain/Indicator: TA1537, Metabolic Activation: NONE, Method: STANDARD PLATE) was “inactive; negative”; the mutagenic call (Test System: AMES SALMONELLA TYPHIMURIUM, Strain/Indicator: TA1537, Metabolic Activation: RAT, LIVER, S-9, AROCLOR 1254, Method: STANDARD PLATE) is “inactive; negative”; the mutagenic call (Test System: AMES SALMONELLA TYPHIMURIUM, Strain/Indicator: TA1538, Metabolic Activation: NONE, Method: STANDARD PLATE) was “inactive; negative”; the mutagenic call (Test System: AMES SALMONELLA TYPHIMURIUM, Strain/Indicator: TA1538, Metabolic Activation: RAT, LIVER, S-9, AROCLOR 1254, Method: STANDARD PLATE) is “inactive; negative”; the mutagenic call (Test System: E. COLI, Strain/Indicator: WP2, Metabolic Activation: NONE, Method: STANDARD PLATE) is “inactive; negative”; the mutagenic call (Test System: E. COLI, Strain/Indicator: WP2, Metabolic Activation: RAT, LIVER, S-9, AROCLOR 1254, Method: STANDARD PLATE) is “inactive; negative”.
Turning to `O=C(O)C(Cl)CCl` (stereo unspecified), the mutagenic call is “inactive; negative” (Test System: AMES SALMONELLA TYPHIMURIUM, Strain/Indicator: TA102, Metabolic Activation: NONE, Method: STANDARD PLATE); “inactive; negative” (Test System: AMES SALMONELLA TYPHIMURIUM, Strain/Indicator: TA2638, Metabolic Activation: NONE, Method: STANDARD PLATE); “inactive; negative” (Test System: E. COLI, Strain/Indicator: WP2 (PKM101), Metabolic Activation: NONE, Method: STANDARD PLATE); “inactive; negative” (Test System: E. COLI, Strain/Indicator: WP2 UVRA (PKM101), Metabolic Activation: NONE, Method: STANDARD PLATE).
As to `CC(=O)Nc1ccc(OCC(O)CNC(C)C)cc1` (stereo unspecified), the mutagenic call reads like this: (Test System: AMES SALMONELLA TYPHIMURIUM, Strain/Indicator: TA98, Metabolic Activation: NONE) “inactive; negative”; under setting [3], “inactive; negative”; (Test System: AMES SALMONELLA TYPHIMURIUM, Strain/Indicator: TA98, Metabolic Activation: RAT, LIVER, S-9, AROCLOR 1254) “inactive; negative”; under setting [4], “inactive; negative”; (Test System: AMES SALMONELLA TYPHIMURIUM, Strain/Indicator: TA100, Metabolic Activation: NONE) “inactive; negative”; under setting [5], “inactive; negative”. Moreover, the mutagenic call was “inactive; negative” (Test System: AMES SALMONELLA TYPHIMURIUM, Strain/Indicator: TA100, Metabolic Activation: RAT, LIVER, S-9, AROCLOR 1254); “inactive; negative” under setting [6]; “inactive; negative” (Test System: AMES SALMONELLA TYPHIMURIUM, Strain/Indicator: TA1535, Metabolic Activation: NONE); “inactive; negative” (Test System: AMES SALMONELLA TYPHIMURIUM, Strain/Indicator: TA1535, Metabolic Activation: RAT, LIVER, S-9, AROCLOR 1254); “inactive; negative” (Test System: AMES SALMONELLA TYPHIMURIUM, Strain/Indicator: TA1537, Metabolic Activation: NONE); “inactive; negative” (Test System: AMES SALMONELLA TYPHIMURIUM, Strain/Indicator: TA1537, Metabolic Activation: RAT, LIVER, S-9, AROCLOR 1254).
